Test results: patent US20070179120A1, “HYDROXYL COMPOUNDS AND COMPOSITIONS FOR CHOLESTEROL MANAGEMENT AND RELATED USES” (ESPERION THERAPEUTICS, INC., priority 2003, published 2007)
Like-named read-outs stand apart in the source and are kept apart here.

Legend:
[1] = test system: primary rat hepatocytes; assay: Inhibition of lipid synthesis ([1-14C]-acetate incorporation) in primary rat hepatocytes; format: cell-based; conditions: Hepatocyte, 4 hours incubation, 0-300 μM
Protocol: Compounds were tested for inhibition of lipid synthesis in primary cultures of rat hepatocytes. Male Sprague-Dawley rats were anesthetized with intraperitoneal injection of sodium pentobarbital (80 mg/kg). Rat hepatocytes were isolated essentially as described by the method of Seglen (Seglen, P. O. Hepatocyte suspensions and cultures as tools in experimental carcinogenesis. J. Toxicol. Environ. Health 1979, 5, 551-560). Hepatocytes were suspended in Dulbecco's Modified Eagles Medium containing 25 mM D-glucose, 14 mM HEPES, 5 mM L-glutamine, 5 mM leucine, 5 mM alanine, 10 mM lactate, 1 mM pyruvate, 0.2% bovine serum albumin, 17.4 mM non-essential amino acids, 20% fetal bovine serum, 100 nM insulin and 20 μg/mL gentamycin) and plated at a density of 1.5×10^5 cells/cm^2 on collagen-coated 96-well plates. Four hours after plating, media was replaced with the same media without serum. Cells were grown overnight to allow formation of monolayer cultures. Lipid synthesis incubation conditions were initially assessed to ensure the linearity of [1-^14C]-acetate incorporation into hepatocyte lipids for up to 4 hours. Hepatocyte lipid synthesis inhibitory activity was assessed during incubations in the presence of 0.25 μCi [1-^14C]-acetate/well (final radiospecific activity in assay is 1 Ci/mol) and 0, 1, 3, 10, 30, 100 or 300 μM of compounds for 4 hours. At the end of the 4-hour incubation period, medium was discarded and cells were washed twice with ice-cold phosphate buffered saline and stored frozen prior to analysis. To determine total lipid synthesis, 170 μl of MicroScint-E® and 50 μl water was added to each well to extract and partition the lipid soluble products to the upper organic phase containing the scintillant. Lipid radioactivity was assessed by scintillation spectroscopy in a Packard TopCount NXT.

[2] = test system: female Syrian hamsters; assay: Chow-fed female Syrian hamsters, 3 weeks of oral dosing: lipoprotein cholesterol, triglycerides, glucose, insulin, body weight, bile acids; format: in vivo; conditions: chow-fed hamster, 100 mg/kg/day oral, 3 weeks of dosing
Protocol: Ten week old female Syrian hamsters were acclimated for 21 days to a shortened light and dark cycle (10 hours of light/14 hours of darkness). During the acclimation and drug intervention period animals were allowed free access to rodent chow (Purina 5001) and water except for a 6 hour period prior to blood sampling. Following the 21 day acclimation period ESP 55015 was administered daily for three weeks, between 8 10 AM, at a dose of 100 mg/Kg by oral gavage in a dosing vehicle consisting of 20% Ethanol/80% Polyethylene glycol 200 [v/v]. Prior to and in the afternoon following the 13th and 21st doses blood samples were collected, between 2 PM and 4 PM, by administering O2/CO2 anesthesia and bleeding from the orbital venous plexus. All blood samples were processed for separation of serum. Serum samples were subsequently assayed for total cholesterol, total cholesterol lipoprotein profiles (HDL cholesterol, LDL cholesterol and VLDL cholesterol), the ratio of HDL cholesterol, LDL cholesterol and VLDL cholesterol), the ratio of HDL cholesterol to non HDL cholesterol (LDL C, VLDL C) and triglycerides (Table 4). Percent body weight gain and ratio of liver weight to body weight were also determined.

[3] = test system: obese female Zucker rats; assay: Oral daily treatment of obese female Zucker rats for fourteen days: serum lipids, glycemic control indicators, body weight; format: in vivo, rat; conditions: for change in vivo at 100 mg/kg/day / change in vivo at 100 mg/kg: Rattus norvegicus, 336 h; for change in vivo at 100 mg/kg/day: 100 mg/kg/day oral gavage, read-out: % wt. gain; for change in vivo at 100 mg/kg / HDL-C/non-HDL-C: 100 mg/kg/day oral; for HDL-C/non-HDL-C: serum ratio
Protocol: In a number of different experiments, illustrative compounds of the invention are administered daily at a dose of up to 100 mg/kg to chow fed obese female Zucker rats for fourteen days in the morning by oral gavage in 1.5% carboxymethylcellulose/0.2% Tween 20 or 20% ethanol/80% polyethylene glycol (dosing vehicles). Animals are weighed daily. Animals are allowed free access to rodent chow and water throughout the study except on days of blood sampling where food is restricted for six hours prior to blood sampling. Blood glucose is determined after the 6 hour fast in the afternoon without anesthesia from a tail vein. Serum is also prepared from pretreatment blood samples subsequently obtained from the orbital venous plexus (with O2/CO2 anesthesia) and following the fourteenth dose at sacrifice from the heart following O2/CO2 anesthesia. Serums are assayed for lipoprotein cholesterol profiles, triglycerides, total cholesterol, Non-HDL cholesterol, HDL cholesterol, the ratio of HDL cholesterol to that of Non-HDL cholesterol, insulin, non-esterified fatty acids, and beta-hydroxy butyric acid. The percent body weight gain and the ratio of liver to body weight is also determined. These are shown as absolute values or as a percent change of the pretreatment values in Table 1 for compounds A-K and in Table 2 for compounds L-M. [drawing 111]

[4] = blood glucose after 6 hour fast, read-out: Glucose (Percent of Pre-treatment)
[5] = serum beta-hydroxy butyric acid, read-out: BHA (Percent of Pre-treatment)
[6] = serum non-esterified fatty acids, read-out: NEFA (Percent of Pre-treatment)
[7] = serum total cholesterol, read-out: TC (Percent of Pre-treatment)
[8] = serum triglycerides, read-out: TG (Percent of Pre-treatment)
[9] = serum, read-out: HDL-C (Percent of Pre-treatment)
[10] = serum, read-out: Insulin (Percent of Pre-treatment)
[11] = serum, read-out: Non-HDL-C (Percent of Pre-treatment)

SMILES | melting point [°C] | IC50 [1] [µM] | change in vivo at 100 mg/kg/day [3] [%] | change in vivo at 100 mg/kg [3, 4] [%] | change in vivo at 100 mg/kg [3, 5] [%] | change in vivo at 100 mg/kg [3, 6] [%] | change in vivo at 100 mg/kg [3, 7] [%] | change in vivo at 100 mg/kg [3, 8] [%] | change in vivo at 100 mg/kg [3, 9] [%] | change in vivo at 100 mg/kg [3, 10] [%] | change in vivo at 100 mg/kg [3, 11] [%] | HDL-C/non-HDL-C [3] | also measured
CC(C)(CO)Cc1cccc(C(O)c2cccc(CC(C)(C)CO)c2)c1 [Compound 6.46, 3-(3-{Hydroxy-[3-(3-hydroxy-2,2-dimethylpropyl)-phenyl]-methyl}-phenyl)-2,2-dimethylpropan-1-ol] | 98 to 99 | – | – | – | – | – | – | – | – | – | – | – | –
CC(C)(CCCCC(O)CCCC(C)(C)C(=O)O)C(=O)O (centres unmarked) [E] | – | 8.3 | – | – | – | – | – | – | – | – | – | – | –
CC(C)(CO)CCCCCCC(O)CCCCCCC(C)(C)CO [Compound 6.32, 2,2,16,16-Tetramethylheptadecane-1,9,17-triol] | 75 to 77 | – | – | – | – | – | – | – | – | – | – | – | –
CC(C)(CO)CCCCCC(O)CCCCCC(C)(C)CO [Compound B] | – | 5.1 | 1 | -3 | 199 | -28 | 105 | -87 | 237 | -52 | -81 | 35 | Bile Acids [2]: 67,108 ± 17,529 ng/ml; Body wt. [2]: 146 ± 2 gm; Glucose [2]: 122 ± 3; Insulin [2]: 2.4 ± 0.7; HDL-C ([2]; serum): 63 ± 4 mg/dL; LDL-C ([2]; serum): 44 ± 4 mg/dL; TG ([2]; serum): 128 ± 37 mg/dL; VLDL-C ([2]; serum): 4 ± 2 mg/dL
CC(C)(CCCCCC(O)CCCCCC(C)(C)CC(=O)c1cccnc1)COC(=O)c1cccnc1 (centres unmarked) [Compound 6.37, Nicotinic acid 8-hydroxy-2,2,14,14-tetramethyl-15-nicotinoylpentadecyl ester] | 65 to 67 | – | – | – | – | – | – | – | – | – | – | – | –
CC(C)(CO)CCCCCC(O)CCCCCC(C)(C)CO [Compound 6.17, 2,2,14,14-Tetramethylpentadecane-1,8,15-triol] | 71 to 75 | – | – | – | – | – | – | – | – | – | – | – | –
CC(C)(CCCCC(O)CCCCC(C)(C)C(=O)O)C(=O)O [A] | – | 3.4 | 12 | -2 | 231 | -11 | 14 | -59 | 50 | 43 | -41 | 5 | –
CC(C)(CO)CCCCC(CO)CCCCC(C)(C)CO [J] | – | 17 | 12 | 21 | 183 | -32 | -6 | -23 | -2 | -11 | -12 | 2 | –
CCCCC(O)CCCCCC(C)(C)C(=O)O (centres unmarked) [L] | – | – | 12 | 13 | 88 | -27 | -3 | -37 | -2 | -37 | -11 | 4 | –
